The source of these data is PubChem BioAssay AID310 (DTP/NCI, 2004).

Values joined by “and” are separate entries in the source; they are usually repeats but may differ in a detail not shown here. Identical values can stand only once. Inconclusive results are not listed.

This experiment concerns C3AKF1 mice, osteogenic sarcoma HE10734 s.c., tumor weight T/C. As to the kind of experiment: NCI In Vivo Anticancer Drug Screen. Data for tumor model Osteogenic Sarcoma HE 10734 (subcutaneous) in C3AKF1 (CHKRF1) mice. The conditions noted are these: endpoint: mean tumor weight, schedule: Q01DX010 (ip), higher = larger tumour. Here is the method: The antitumor activity of compounds was measured in mice bearing transplantable tumors. Survival or tumor size were measured and the results are expressed as the measurement made in the treated group (T) divided by the measurement made in the vehicle treated control group (C). The tumor model used in this assay is Osteogenic Sarcoma HE 10734 (subcutaneous) in C3AKF1 (CHKRF1) mice

[1] abbreviates: dose: 125.0 mg/kg/injection, vehicle: saline.
Setting [2] is: dose: 250.0 mg/kg/injection, vehicle: saline.
Where [3] appears, read: dose: 125.0 mg/kg/injection, vehicle: carboxymethylcellulose (CMC).
The mark [4] stands for this setting: dose: 25.0 mg/kg/injection, vehicle: saline.
Where [5] appears, read: dose: 50.0 mg/kg/injection, vehicle: saline.
Setting [6] is: dose: 100.0 mg/kg/injection, vehicle: saline.
The mark [7] stands for this setting: dose: 500.0 mg/kg/injection, vehicle: saline.
Setting [8] is: dose: 20.0 mg/kg/injection, vehicle: saline.

`O=[N+]([O-])c1ccccc1CSc1ncnc2nc[nH]c12`: the T/C by setting is: (dose: 62.0 mg/kg/injection, vehicle: saline) 106 % of control; under setting [1], 81 % of control; under setting [2], 28 % of control.
As to `O=C(O)C1(NO)CCCC1`, the T/C (dose: 15.0 mg/kg/injection, vehicle: saline) is 88 % of control; the T/C (dose: 23.0 mg/kg/injection, vehicle: saline) is 112 % of control; the T/C (dose: 35.0 mg/kg/injection, vehicle: saline) was 71 % of control; the T/C (dose: 112.0 mg/kg/injection, vehicle: saline) is 29 % of control.
For the compound `N#CCSc1nc(N)nc2nc[nH]c12`, the T/C was 90 % of control (dose: 2.0 mg/kg/injection, vehicle: carboxymethylcellulose (CMC)); 107 % of control (dose: 4.0 mg/kg/injection, vehicle: carboxymethylcellulose (CMC)); 86 % of control (dose: 8.0 mg/kg/injection, vehicle: carboxymethylcellulose (CMC)); 91 % of control (dose: 16.0 mg/kg/injection, vehicle: carboxymethylcellulose (CMC)); 113 % of control (dose: 24.0 mg/kg/injection, vehicle: carboxymethylcellulose (CMC)); 93 % of control (dose: 35.0 mg/kg/injection, vehicle: carboxymethylcellulose (CMC)). The T/C by setting is: (dose: 55.0 mg/kg/injection, vehicle: carboxymethylcellulose (CMC)) 90 % of control and 100 % of control; (dose: 85.0 mg/kg/injection, vehicle: carboxymethylcellulose (CMC)) 44 % of control; under setting [3], 22 % of control.
`Cc1ccc(N=NN(C)C)cc1`: the T/C under setting [4] was 83 % of control, the T/C under setting [5] is 46 % of control and the T/C under setting [6] is 46 % of control.
As to `CN(C)c1ccc(/C=C\c2ccnc3ccccc23)cc1`, the T/C (dose: 2.5 mg/kg/injection, vehicle: carboxymethylcellulose (CMC)) was 50 % of control; the T/C (dose: 14.0 mg/kg/injection, vehicle: carboxymethylcellulose (CMC)) was 68 % of control; the T/C (dose: 22.0 mg/kg/injection, vehicle: carboxymethylcellulose (CMC)) is 44 % of control; the T/C (dose: 50.0 mg/kg/injection, vehicle: carboxymethylcellulose (CMC)) was 48 % of control; the T/C (dose: 75.0 mg/kg/injection, vehicle: carboxymethylcellulose (CMC)) was 27 % of control; the T/C (dose: 100.0 mg/kg/injection, vehicle: carboxymethylcellulose (CMC)) was 67 % of control.
On to `O=C(Nc1ccc(C2=NCCN2)cc1)c1ccc(C(=O)Nc2ccc(C3=NCCN3)cc2)c(NC(=O)c2ccc(C(=O)Nc3cc(C(=O)Nc4ccc(C5=NCCN5)cc4)ccc3C(=O)Nc3ccc(C4=NCCN4)cc3)cc2)c1`, for which the T/C was 111 % of control (dose: 28.0 mg/kg/injection, vehicle: saline); 104 % of control (dose: 45.0 mg/kg/injection, vehicle: saline); 118 % of control (dose: 65.0 mg/kg/injection, vehicle: saline); 98 % of control and 107 % of control (dose: 95.0 mg/kg/injection, vehicle: saline); 93 % of control (dose: 140.0 mg/kg/injection, vehicle: saline); 89 % of control (dose: 210.0 mg/kg/injection, vehicle: saline). Moreover, the T/C (dose: 315.0 mg/kg/injection, vehicle: saline) was 110 % of control.
For `O=C(NO)c1ccncc1`, the T/C is 113 % of control under setting [1], 123 % of control under setting [2] and 102 % of control under setting [7].
For `CCOC(=O)Sc1ncnc2nc[nH]c12`, the T/C (dose: 112.0 mg/kg/injection, vehicle: carboxymethylcellulose (CMC)) was 13 % of control.
On to `S=c1nc[nH]c2c1ncn2C1CCCO1` (centres undefined), for which the T/C is 84 % of control (dose: 12.0 mg/kg/injection, vehicle: saline); 85 % of control under setting [4]; 62 % of control under setting [5]; 30 % of control and 33 % of control under setting [6].
For the compound `CS(=O)(=O)OC[C@@H](O)[C@@H](O)COS(C)(=O)=O`, the T/C is 88 % of control (dose: 62.5 mg/kg/injection, vehicle: carboxymethylcellulose (CMC)); 53 % of control and 74 % of control under setting [3]; 92 % of control and 109 % of control (dose: 500.0 mg/kg/injection, vehicle: carboxymethylcellulose (CMC)).
Regarding `CCCCCCCCCCCCO[P+](=O)OCCCCCCCCCCCC`, the T/C by setting is: (dose: 65.0 mg/kg/injection, vehicle: carboxymethylcellulose (CMC)) 81 % of control; (dose: 95.0 mg/kg/injection, vehicle: carboxymethylcellulose (CMC)) 55 % of control; (dose: 145.0 mg/kg/injection, vehicle: carboxymethylcellulose (CMC)) 51 % of control; (dose: 220.0 mg/kg/injection, vehicle: carboxymethylcellulose (CMC)) 48 % of control; (dose: 222.0 mg/kg/injection, vehicle: carboxymethylcellulose (CMC)) 36 % of control.
As to `NC(N)=N/N=C/C=N/N=C(N)N`, the T/C (dose: 30.0 mg/kg/injection, vehicle: carboxymethylcellulose (CMC)) is 81 % of control.
In the case of `O=S1(=O)CCCO1`, the T/C was 75 % of control (dose: 40.0 mg/kg/injection, vehicle: carboxymethylcellulose (CMC)) and 76 % of control (dose: 80.0 mg/kg/injection, vehicle: carboxymethylcellulose (CMC)).
On to `CN(C)[C@@H]1C(=O)C(C(=O)NCN(CCCl)CCCl)=C(O)[C@@]2(O)C(=O)C3=C(O)c4c(O)cccc4[C@@](C)(O)[C@H]3C[C@@H]12`, for which the T/C was 105 % of control (dose: 8.9 mg/kg/injection, vehicle: saline); 84 % of control (dose: 13.0 mg/kg/injection, vehicle: saline); 94 % of control under setting [8]; 52 % of control and 69 % of control (dose: 30.0 mg/kg/injection, vehicle: saline); 53 % of control (dose: 44.0 mg/kg/injection, vehicle: saline).
Take `CCCCn1cnc2c(=S)nc(N)[nH]c21`: the T/C (dose: 3.0 mg/kg/injection, vehicle: saline) was 49 % of control; the T/C (dose: 6.0 mg/kg/injection, vehicle: saline) was 51 % of control; the T/C (dose: 11.0 mg/kg/injection, vehicle: saline) was 29 % of control; the T/C (dose: 22.0 mg/kg/injection, vehicle: saline) was 7 % of control.
As for `Nc1nc(SCc2ccccc2)c2ncn(C3CCCC3)c2n1`, the T/C is 80 % of control under setting [1]; 115 % of control under setting [2]; 83 % of control under setting [7]; 63 % of control (dose: 1000.0 mg/kg/injection, vehicle: saline).
As for `S=c1c2[nH]cnc2ncn1CCSC1=NC=NC2=NC=NC21` (centres undefined), the T/C under setting [5] is 81 % of control; the T/C (dose: 200.0 mg/kg/injection, vehicle: saline) is 35 % of control; the T/C (dose: 400.0 mg/kg/injection, vehicle: saline) is 29 % of control.
As for `O=C1N(Cl)C(=O)C(c2ccc(Cl)cc2)(c2ccc(Cl)cc2)N1Cl`, the T/C reads like this: (dose: 10.0 mg/kg/injection, vehicle: saline) 70 % of control; under setting [8], 58 % of control; (dose: 40.0 mg/kg/injection, vehicle: saline) 90 % of control; (dose: 80.0 mg/kg/injection, vehicle: saline) 67 % of control and 77 % of control; (dose: 120.0 mg/kg/injection, vehicle: saline) 48 % of control; (dose: 180.0 mg/kg/injection, vehicle: saline) 55 % of control. Further, the T/C (dose: 270.0 mg/kg/injection, vehicle: saline) is 53 % of control.
